Measurements from patent US12565485B2, “Solid forms of 1-((S)-4-((R)-7-(6-amino-4-methyl-3-(trifluoromethyl)pyridin-2-yl)-6-chloro-8-fluoro-2-(((s)-1-methylpyrrolidin-2-yl)methoxy)quinazolin-4-yl)-3-methylpiperazin-1-yl)prop-2-en-1-one” (Genentech, Inc., priority 2022, dated 2026).

Experiments:
Format in all cases: physicochemical
Liquid vapor diffusion = details: Compound A, RT
Experimental: (§1) Liquid vapor diffusion. Liquid vapor diffusion experiments were conducted in different solvent systems. […] This solution was then placed into a 20-mL vial with 3 mL of corresponding anti-solvent. The 20-mL vial was sealed with a cap and kept at RT allowing sufficient time for organic vapor to interact with the solution. The precipitates were isolated for XRPD analysis.
as §1, with “diffusion Compound A.” for “diffusion.”

[1] = Slurry conversion experiments (XRPD of isolated solids); details: for Slurry conversion result (XRPD form): different solvent systems
Experimental: Slurry conversion experiments were conducted at RT in different solvent systems. About 15˜20 mg of freebase starting material (Compound 1) was suspended in 0.5 mL of solvent in an HPLC vial. Solids were isolated for XRPD analysis after magnetically stirring at RT.
Slurry at 5°. Slurry conversion experiments were conducted at 5° C. in different solvent systems. About 15˜20 mg of freebase starting material (Compound 1) was suspended in 0.5 mL of solvent in an HPLC vial. Solids were isolated for XRPD analysis after magnetically stirring at 5° C.
Slurry at 50°. Slurry conversion experiments were conducted at 50° C. in different solvent systems. About 20 mg of freebase starting material (Compound 1) was suspended in 0.5 mL of solvent in an HPLC vial. Solids were isolated for XRPD analysis after magnetical stirring at 50° C.
Slurry at RT for Compound A. Slurry conversion experiments were conducted at RT in different solvent systems. […] Solids were isolated for XRPD analysis after magnetic stirring at RT.
Slurry at 50° for Compound A. Slurry conversion experiments were conducted at 50° C. in different solvent systems. […] Solids were isolated for XRPD analysis after magnetic stirring at 50° C.

[2] = VH-XRPD analysis / transitions of forms at varying relative humidity; details: ambient humidity levels 40%
Excerpt: FIG. 19. The sample then reverts to the original form upon reaching 30% RH. […] Transitions of Forms of Compound A at varying RH.

Slow cooling = details: Compound A, 50° C. to 5° C. at 0.1° C./min
Experimental: Slow cooling Compound A. Slow cooling experiments were conducted in four solvent systems. […] The suspension was then heated to 50° C., equilibrated for about 2 hr and filtered to a new vial using a seal membrane (PTFE, pore size of 0.45 μm). Filtrates were slowly cooled down to 5° C. at a rate of 0.1° C./min. The obtained solids were kept isothermal at 5° C. before isolation for XRPD analysis.

Anti-solvent addition = details: Compound A
Experimental: Anti-solvent addition. A total of 12 anti-solvent addition experiments were carried out. […] The obtained precipitate was isolated for XRPD analysis.
Anti-solvent addition Compound A. A total of 14 anti-solvent addition experiments were carried out. […] The obtained precipitate was isolated for XRPD analysis.

Slow evaporation = details: Compound A, evaporation at RT
Experimental: Slow evaporation. Slow evaporation experiments were performed under 10 conditions. Briefly, about 15˜20 mg of freebase starting material (810935-01-A) was dissolved in 0.5˜1.0 mL of solvent in a 3-mL glass vial.
Slow evaporation Compound A. Slow evaporation experiments were performed under seven conditions.

[3] = Heating under N2 protection (VT-XRPD), form change; details: heating to 100° C. under N2 protection, cooled down and exposed to ambient conditions; listed as adipate Type A
Experimental: Compound B Form A was obtained from an acetone system and the sample was air dried at RT. […] (peak temperature) before the possible overlapped peak with peak temperature at 156.3° C. (FIG. 12). Based on the integrals, the stoichiometric ratio of fumaric acid:freebase was determined to be 1.03. A peak of acetone was observed and approximately 0.49 molar acetone (4.4 wt %) was detected. The HPLC purity of Compound B Form A was determined to be 93.56 area %. […] Around 0.39 molar acetone (3.5 wt %) was still detected. One endotherm at 58.7° C. and an overlapped peak with peak temperature at 157.1° C. were still observed on the sample obtained after heating. The first endotherm might be caused by re-adsorption of moisture. Since ˜3.5 wt % acetone was still detected from NMR, Compound B Form A is expected to be an acetone/H2O co-solvate. […]

[4] = solvent DMSO, anti-solvent EtOAc
[5] = solvent EtOH, anti-solvent MTBE
[6] = solvent THF, anti-solvent n-Heptane

Result (Liquid vapor diffusion; [4]): Clear solution | Result (Liquid vapor diffusion; [5]): Gel | Result (Liquid vapor diffusion; solvent EtOH, anti-solvent n-Pentane): Gel | Result (Liquid vapor diffusion; solvent H2O, anti-solvent ACN): Gel | Result (Liquid vapor diffusion; solvent H2O, anti-solvent IPA): Gel | Result (Liquid vapor diffusion; solvent THF, anti-solvent MTBE): Gel | Result (Liquid vapor diffusion; [6]): Amorphous | Slurry conversion result (XRPD form) ([1]; 50° C.): Compound A Form A was obtained | Result ([1]; Compound A slurry at 50° C., Anisole): Compound A Form A | Result ([1]; Compound A slurry at 50° C., CPME): Compound A Form A | Result ([1]; Compound A slurry at 50° C., EtOAc): Compound A Form A | Result ([1]; Compound A slurry at 50° C., IPAc): Compound A Form A | Result ([1]; Compound A slurry at 50° C., MIBK): Compound A Form A | Result ([1]; Compound A slurry at 50° C., MTBE): Compound A Form A | Result ([1]; Compound A slurry at 50° C., Toluene): Compound A Form A | Result ([1]; Compound A slurry at 50° C., n-Heptane): Compound A Form A | Result ([1]; Compound A slurry at RT, 1,4-Dioxane): Compound A Form A | Result ([1]; Compound A slurry at RT, 1,4-Dioxane/IPAc, 1:3): Compound A Form A | Result ([1]; Compound A slurry at RT, 1,4-Dioxane/n-Heptane, 1:3): Compound A Form A | Result ([1]; Compound A slurry at RT, 2-MeTHF/Toluene, 1:4): Compound A Form A | Result ([1]; Compound A slurry at RT, ACN): Compound A Form A | Result ([1]; Compound A slurry at RT, Acetone): Compound A Form A | Result ([1]; Compound A slurry at RT, Acetone/Anisole, 1:3): Compound A Form A | Result ([1]; Compound A slurry at RT, Acetone/n-Heptane, 1:3): Compound A Form A | Result ([1]; Compound A slurry at RT, DCM/IPA, 1:4): Compound A Form A | Result ([1]; Compound A slurry at RT, DMSO/H2O, 1:6): Clear solution | Result ([1]; Compound A slurry at RT, EtOH/n-Heptane, 1:6): Compound A Form A | Result ([1]; Compound A slurry at RT, H2O): Clear solution | Result ([1]; Compound A slurry at RT, H2O/ACN, 1:4): Gel | Result ([1]; Compound A slurry at RT, H2O/IPA, 1:4): Gel | Result ([1]; Compound A slurry at RT, IPA): Compound A Form A | Result ([1]; Compound A slurry at RT, MEK): Compound A Form A | Result ([1]; Compound A slurry at RT, MEK/MTBE, 1:3): Compound A Form A | Result ([1]; Compound A slurry at RT, MEK/n-Heptane, 1:3): Compound A Form A | Result ([1]; Compound A slurry at RT, MeOH/CPME, 1:6): Compound A Form A | Result ([1]; Compound A slurry at RT, THF/H2O, 1:6): Clear solution | Slurry conversion result (XRPD form) ([1]; RT): adipate Type A was obtained | Form after exposure to ambient humidity [2]: Compound A Form D was formed | Result (Slow cooling; ACN): Compound A Form A | Result (Slow cooling; Acetone): Compound A Form A | Result (Slow cooling; IPA): Compound A Form A | Result (Slow cooling; MEK): Compound A Form A | Result (Anti-solvent addition; solvent 2-MeTHF, anti-solvent n-Heptane): Gel | Result (Anti-solvent addition; solvent DCM, anti-solvent MTBE): Compound A Form A | Result (Anti-solvent addition; solvent DCM, anti-solvent Toluene): Compound A Form B | Result (Anti-solvent addition; solvent DCM, anti-solvent n-Heptane): Compound A Form A | Result (Anti-solvent addition; [4]): Clear | Result (Anti-solvent addition; solvent EtOH, anti-solvent Anisole): Clear solution | Result (Anti-solvent addition; [5]): Gel | Result (Anti-solvent addition; solvent EtOH, anti-solvent n-Heptane): Compound A Form A | Result (Anti-solvent addition; solvent MeOH, anti-solvent MTBE): Gel | Result (Anti-solvent addition; solvent MeOH, anti-solvent Toluene): Compound A Form A | Result (Anti-solvent addition; solvent THF, anti-solvent EtOAc): Compound A Form A | Result (Anti-solvent addition; solvent THF, anti-solvent MTBE): Compound A Form A | Result (Anti-solvent addition; solvent THF, anti-solvent Toluene): Compound A Form A | Result (Anti-solvent addition; [6]): Compound A Form A | Result (Slow evaporation; 2-MeTHF): Gel | Result (Slow evaporation; Acetone): Gel | Result (Slow evaporation; DCM): Gel | Result (Slow evaporation; EtOH): Gel | Result (Slow evaporation; H2O): Clear solution | Result (Slow evaporation; MeOH): Gel | Result (Slow evaporation; THF): Gel
Structure (SMILES): C=CC(=O)N1CCN(c2nc(OC[C@@H]3CCCN3C)nc3c(F)c(-c4nc(N)cc(C)c4C(F)(F)F)c(Cl)cc23)[C@@H](C)C1 [Compound A Form A]
Form change after heating [3]: very slight differences were observed before and after heating
